How the values were obtained:
Type in all cases: cell-based, Human
LS patient cells [1] = assay: Cell spreading assay after a predetermined time-point (cell area)
Description: Two approaches to monitor cell spreading were used: after a predetermined time-point and at multiple time points.
1) Spreading after a Predetermined Time-Point.
(§1) Human dermal fibroblasts (12 h after seeding) were treated with the indicated drug (or vehicle) in 0.1% serum for the indicated time. After drug treatment, the cells were lifted with 20 mM EDTA (ethylenediaminetetraacetic acid) in PBS (phosphate-buffered saline), pelleted at 300×g for 5 min and resuspended in 1% serum in the presence of drug or vehicle. Cell suspensions were then set in a rotator for 1 hour before seeding them on fibronectin-coated coverslips for 30 min, undisturbed, to allow attachment and spreading. After spreading, coverslips were gently rinsed with PBS and fixed in 4% formaldehyde for 10 min at room temperature. Cells were stained with rhodamine—phalloidin and imaged by epifluorescence microscopy. At least 50 cells were quantified per experiment by tracing and measuring cell areas by using the magic wand tool in ImageJ software (National Institutes of Health (NIH), Bethesda, MD, USA).
(§2) Cell spreading on fibronectin-coated surfaces of cells treated with RhoA modulators in comparison to untreated cells was observed. Cells were fixed and stained with fluorescently labeled-phalloidin after 30 min spreading time at 37° C. Following imaging, cell area measurements were performed.

Normal fibroblasts = assay: as above; settings: 30 min after seeding on fibronectin
Description: as §1, §2

LS patient cells [2] = assay: Viability/toxicity assessment (cell counting, morphology, MTT)
Description: Cells were incubated with the indicated drugs for the specified times at different concentrations as described in low serum (0.1%) media to avoid substantial protein-mediated drug sequestration. In addition to cell counting post-treatment, a sample of cells seeded on fibronectin-coated coverslips was fixed and stained with fluorescein isothiocyanate (FITC)-phalloidin and DAPI (4′,6-diamidino-2-phenylindole) for cell morphology inspection. Viability was monitored by performing MTT (3-(4,5-dimethylthiazol-2-yl)-2,5-diphenyltetrazolium bromide) assays as follows: Following treatment of cells (in triplicates) with indicated drugs at different concentrations for specified times, media were aspirated and replaced with MTT solution (freshly prepared at 0.5 mg/ml in complete media) and incubated for 1.5 h. Additionally, a blank control with only MTT reagent containing no cells was also prepared. Following incubation, solution was aspirated and MTT was immediately solubilized using 1 mL DMSO (dimethylsulfoxide) (per well) by gentle pipetting. Absorbance values of solubilized MTT solution from the different wells were measured at 570 nm using a spectrophotometer.

[3] = tested on: HMG-CoA reductase in LS cells; assay: Cholesterol uptake assay; settings: LS patient fibroblasts in Cho-free media
Description: Assay for cholesterol uptake was performed using cholesterol-free media and an AbCam kit (ab236212; Cambridge, UK) according to manufacturer's instructions.

Rac1 = Rac1 FRET biosensor assay; settings: LS cells, FRET-based biosensor
Description: FIG. 9. […] LS patient cells expressing Rac1 FRET probe were treated with vehicle or rosuvastatin, imaged and FRET signals analyzed by the ratiometric method (*p<0.05, Wilcoxon test).

normal cells = assay: Ciliogenesis assay
Description: Cells were seeded on glass cover slips and grown for 24 h in complete media. Then media was replaced by 0.1% serum DMEM (starvation media) containing vehicle or the drug to induce ciliogenesis for the indicated times. Cells were then fixed in 4% formaldehyde—PBS for 10 min and immuno-labeled with anti-acetylated tubulin antibody (see Table 2). At least 50 cells were imaged for every experiment and experiments were repeated at least thrice. The fraction of cells displaying cilia and cilia length were determined as described previously (Coon et al. (2012), supra).

LS patient cells [4] = assay: Cell adhesion by time-lapse microscopy
Description: (§3) Human dermal fibroblasts were treated as described above, seeded on fibronectin-coated LabTek chambers, and allowed to attach and spread. Cells were imaged at intervals of 10 min after seeding for 8 h using 20× objective in a Zeiss Axiovert inverted microscope. Number of detaching cells was quantified every 10 min up to the first hour by using the cell counter tool in ImageJ (NIH). To determine spreading kinetics, individual cells were tracked in each time lapse image and were scored from 1-5 based on general cell morphology. Briefly, cells that were just attached and looked circular with no protrusions or visible extensions received a score of 1. Cells with needle-like (filopodia) projections were scored 2, cells with lamellopodia-like extensions were scored 3, cells with more extended lamellopodia-like extensions and increased cell area were given a score of 4, and a further increase in cell area, often accompanied by isotropic spread morphology, was given a score of 5.
Alternatively, cells were treated as described above and allowed to attach on fibronectin-coated dishes. Immediately after seeding, the cells were imaged with a 10× objective simultaneously using up to 3 Cytosmart Imaging Systems (Lonza, Basel, Switzerland) at intervals of 30 s for 2 h. Number of cells attached was quantified every 10 min up to the first hour using the Cell Counter tool in ImageJ software (NIH). […]

LS patient cells [5] = assay: Spreading at multiple time points (spreading score, time-lapse); settings: LS patient cells treated with rosuvastatin; non-linear regression of FIG. 4 data
Description: as §3
A von Bertalanffy logistic model was adopted to fit the data presented in FIG. 3A (adhesion) and FIG. 4 (spreading) as shown in Table 3. […] The associated error ΔK was estimated using standard rules of error propagation based on the determined T0.5 error (ΔT0.5), according to ΔK=K(ΔT0.5/T0.5).

[6] = tested on: Focal Adhesion Kinase (FAK); assay: Focal adhesion immunofluorescence (phospho-FAK), confocal microscopy; settings: LS cells
Description: Cells were prepared as described under “Spreading after a pre-determined time point.” After fixation, indirect immunofluorescence was performed using antibodies against phospho-FAK (Y397) or vinculin. Briefly, cells were gently washed with PBS, fixed with 4% formaldehyde-PBS for 10 min and permeabilized using 0.25% Triton-X 100 in PBS for 20 min, followed by blocking with 5% BSA (bovine serum albumin) in PBS for 30 min. Cells were also immuno-stained with Phalloidin-FITC and DAPI to label the actin cytoskeleton and nucleus, respectively. Images were acquired at the Indiana O'Brien Center for Biological Microscopy (ICBM; Division of Nephrology, Indiana University School of Medicine, Indianapolis, IN, USA) using an Olympus IX81 inverted confocal microscope. A 60× Oil objective (NA 1.42) was used and randomly selected fields were imaged using constant voltage, gain and intensity for the different groups, as well as uniform step size (0.19 μm) using sequential image collection mode.

`CC(C)c1nc(N(C)S(C)(=O)=O)nc(-c2ccc(F)cc2)c1/C=C/[C@@H](O)C[C@@H](O)CC(=O)O` [rosuvastatin] was tested, and the “LS spreading phenotype alleviation, acute dose” value (LS patient cells [1]; 100 μM for 1 h) was “Phenotype alleviation was observed”, the “cell spreading / membrane remodeling phenotype in cells from another LS patient” value (LS patient cells [1]; LS2 cells, FIG. 8A) was “ameliorated” and the “LS cell spreading phenotype” value (LS patient cells [1]; LS patient fibroblasts, 30 min after seeding on fibronectin) was “mitigated to a certain extent the LS spreading phenotype”. The “ranking of statins: rescue effect over needed dose and toxicity” value (LS patient cells [1]; LS spreading defects) was “produced the best results”, the “cell spreading of normal cells” value (Normal fibroblasts) was “No obvious effect” and the “toxicity, chronic exposure” value (LS patient cells [2]; 10 μM for ≥72 h) was “relatively innocuous”. For the same molecule, the “toxicity, acute dose” value (LS patient cells [2]; 100 μM, exposure time≥15 h) was “induced toxicity”, the “toxicity (viability and stress-induced changes in morphology)” value (LS patient cells [2]; LS cells after exposure to statins) was “minimal toxicity” and the “uptake of fluorescently labeled Cho (inhibition of cholesterol biosynthesis)” value [3] was “less acute inhibition of cholesterol biosynthesis”. The Rac1 activation levels (Rac1) was “raised”, the “ciliogenesis by normal cells” value (normal cells) was “No obvious effect” and the “LS cell adhesion defect” value (LS patient cells [4]; LS cells on fibronectin-coated surfaces) was “alleviated the LS cell adhesion defect”. The “Adhesion, Process Continuous Rate” value (LS patient cells [4]; LS patient cells treated with rosuvastatin, fibronectin-coated surfaces, non-linear regression of FIG. 3A data) was 35 ± 5 min^−1 × 10^3, the “Spreading, Process Continuous Rate” value (LS patient cells [5]) was 24 ± 2 min^−1 × 10^3 and the “peripherally activated FAK (phospho-Tyr397) abnormality” value [6] was “alleviated”.

From US12310964B2, “Compositions and methods for the treatment of Lowe Syndrome” (Purdue Research Foundation, priority 2020, dated 2025)
